Results published in the NIST ThermoML archive (doi:10.1016/j.jct.2019.06.032).

Assay: xn = mol fraction of the nth substance listed
Details: 101 kPa, Liquid; for viscosity: Capillary tube (Ostwald / Ubbelohde) method; for mass density: Vibrating tube method

CCN(CC)CCO [(diethylamino)ethanol] + NCCO
Details	mass density, 293.15 K [kg/m3]	mass density, 303.15 K [kg/m3]	mass density, 313.15 K [kg/m3]	mass density, 323.15 K [kg/m3]	mass density, 333.15 K [kg/m3]	viscosity, 293.15 K [mPa·s]	viscosity, 303.15 K [mPa·s]	viscosity, 313.15 K [mPa·s]	viscosity, 323.15 K [mPa·s]	viscosity, 333.15 K [mPa·s]
x2 = 0	891.2	874.4	865.4	856.4	845.6	4.848	3.41	2.466	1.855	1.431
x2 = 0.1003	897.2	881.4	869.8	859.4	849.2	6.52	3.543	2.619	1.952	1.568
x2 = 0.2004	906.9	892.2	881.6	871.1	861	8.275	3.892	2.982	2.149	1.746
x2 = 0.2993	920.7	906.2	897.8	887.6	879.7	10.42	4.495	3.501	2.658	2.107
x2 = 0.4003	931.6	918	910.5	901.2	891.8	12.32	5.526	4.04	2.925	2.426
x2 = 0.5001	941	929.9	920.1	910.2	902.3	13.76	6.483	4.629	3.314	2.767
x2 = 0.6001	952.2	942.1	935	926.9	915.8	15.98	7.382	5.072	3.651	3.007
x2 = 0.7007	965.8	954.2	944.6	935.9	927.9	17.27	8.567	5.754	4.046	3.273
x2 = 0.8001	981.8	971.6	963	954.3	946.2	19.77	10.57	7.21	4.954	3.651
x2 = 0.9	999.8	991.5	982.7	974.3	965.5	22.75	13.44	8.826	6.018	4.413

NCCO [2-aminoethan-1-ol] + O
Details	mass density, 293.15 K [kg/m3]	mass density, 303.15 K [kg/m3]	mass density, 313.15 K [kg/m3]	mass density, 323.15 K [kg/m3]	mass density, 333.15 K [kg/m3]	viscosity, 293.15 K [mPa·s]	viscosity, 303.15 K [mPa·s]	viscosity, 313.15 K [mPa·s]	viscosity, 323.15 K [mPa·s]	viscosity, 333.15 K [mPa·s]
x1 = 0.1	1010.9	1007	1002.5	997.4	991.7	2.669	1.953	1.495	1.147	0.903
x1 = 0.1999	1021.1	1016	1010.6	1004.4	998	5.763	3.976	2.388	1.819	1.429
x1 = 0.2998	1027.1	1021	1014.3	1007.5	1000.5	10.28	6.221	4.011	3	2.268
x1 = 0.4	1029.4	1022.6	1015.5	1008.3	1000.8	15.22	9.814	6.589	4.621	3.387
x1 = 0.4998	1029.3	1022	1014.6	1007	999.4	19.75	12.4	8.077	5.671	4.071
x1 = 0.5995	1028.1	1020.3	1012.7	1004.9	997	22.83	14.17	9.474	6.412	4.784
x1 = 0.6982	1026.3	1018	1010.4	1002.8	994.9	24.37	15.25	10.05	7.035	4.978
x1 = 0.7974	1023.8	1015.1	1007.1	999.4	991.5	25.19	15.62	10.09	7.169	5.014
x1 = 0.8995	1021.2	1013	1005.1	997.2	988.1	24.62	15.17	10.08	7.12	5.001
x1 = 1	1016.9	1009.5	1001.1	992.7	984.3	23.79	14.83	9.89	6.872	4.99

CCN(CC)CCO [(diethylamino)ethanol] + O
Details	mass density, 293.15 K [kg/m3]	mass density, 303.15 K [kg/m3]	mass density, 313.15 K [kg/m3]	mass density, 323.15 K [kg/m3]	mass density, 333.15 K [kg/m3]	viscosity, 293.15 K [mPa·s]	viscosity, 303.15 K [mPa·s]	viscosity, 313.15 K [mPa·s]	viscosity, 323.15 K [mPa·s]	viscosity, 333.15 K [mPa·s]
x1 = 0.1001	982	974.2	966.6	958.5	950.1	7.938	5.548	3.741	2.623	1.94
x1 = 0.2005	962.4	953	944.3	935	925.6	17.02	10.01	6.284	4.233	2.937
x1 = 0.2997	946.6	936.8	926.9	917.5	907.6	20.5	11.01	7.194	4.584	3.15
x1 = 0.3978	933.4	923.2	913.9	903.7	893.9	20.32	9.991	6.145	4.058	2.963
x1 = 0.4997	922.2	912	901.8	892	882.4	17.73	9.074	5.477	3.605	2.593
x1 = 0.5992	914.4	903.2	892.8	882.3	872.5	14.8	8.421	5.078	3.05	2.4
x1 = 0.6897	906.3	894.8	884.2	873.9	864.7	12.42	7.125	4.663	2.692	2.102
x1 = 0.7997	899.6	887.4	876.9	867.4	857.3	9.723	6.002	3.878	–	1.794
x1 = 0.8997	895.5	880.8	870.7	861.4	851.9	7.341	4.868	3.402	2.141	1.619
x1 = 1	891.2	874.4	865.4	856.4	845.6	4.848	3.41	2.466	1.855	1.431
